In ChEMBL document CHEMBL1158447, “Substituted benzimidazoles: A novel chemotype for small molecule hKSP inhibitors” (Bioorg Med Chem Lett, 2009):

Experiments:
[1] = biological target: T1, Kinesin-like protein KIF3B (Homo sapiens, UniProt O15066); assay: Inhibition of Kif3B
T1 sequence (O15066 whole entry): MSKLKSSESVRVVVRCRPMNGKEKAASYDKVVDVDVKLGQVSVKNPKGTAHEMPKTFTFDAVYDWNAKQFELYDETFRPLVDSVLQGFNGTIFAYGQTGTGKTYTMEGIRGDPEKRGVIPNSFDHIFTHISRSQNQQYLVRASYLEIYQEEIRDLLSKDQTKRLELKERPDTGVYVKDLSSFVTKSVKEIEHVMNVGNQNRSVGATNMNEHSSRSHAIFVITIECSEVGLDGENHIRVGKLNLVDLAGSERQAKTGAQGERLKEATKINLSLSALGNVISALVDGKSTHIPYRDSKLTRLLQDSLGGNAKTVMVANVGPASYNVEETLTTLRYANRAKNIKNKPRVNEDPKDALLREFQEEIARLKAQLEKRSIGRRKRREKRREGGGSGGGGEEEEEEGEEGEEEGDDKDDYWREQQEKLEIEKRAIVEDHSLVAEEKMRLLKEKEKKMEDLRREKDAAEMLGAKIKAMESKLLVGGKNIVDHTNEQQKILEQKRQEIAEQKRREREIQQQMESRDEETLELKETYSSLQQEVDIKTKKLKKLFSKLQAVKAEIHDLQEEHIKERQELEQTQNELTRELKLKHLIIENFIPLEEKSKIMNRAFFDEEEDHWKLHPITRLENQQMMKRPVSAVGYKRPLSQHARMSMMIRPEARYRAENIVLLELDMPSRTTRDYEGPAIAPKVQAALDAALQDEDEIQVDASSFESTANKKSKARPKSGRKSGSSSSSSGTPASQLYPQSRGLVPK

[2] = biological target: T2, Kinesin-like protein KIF11 (Homo sapiens, UniProt P52732); assay: Inhibition of human kinesin spindle protein by endpoint assay
T2 sequence (P52732 whole entry): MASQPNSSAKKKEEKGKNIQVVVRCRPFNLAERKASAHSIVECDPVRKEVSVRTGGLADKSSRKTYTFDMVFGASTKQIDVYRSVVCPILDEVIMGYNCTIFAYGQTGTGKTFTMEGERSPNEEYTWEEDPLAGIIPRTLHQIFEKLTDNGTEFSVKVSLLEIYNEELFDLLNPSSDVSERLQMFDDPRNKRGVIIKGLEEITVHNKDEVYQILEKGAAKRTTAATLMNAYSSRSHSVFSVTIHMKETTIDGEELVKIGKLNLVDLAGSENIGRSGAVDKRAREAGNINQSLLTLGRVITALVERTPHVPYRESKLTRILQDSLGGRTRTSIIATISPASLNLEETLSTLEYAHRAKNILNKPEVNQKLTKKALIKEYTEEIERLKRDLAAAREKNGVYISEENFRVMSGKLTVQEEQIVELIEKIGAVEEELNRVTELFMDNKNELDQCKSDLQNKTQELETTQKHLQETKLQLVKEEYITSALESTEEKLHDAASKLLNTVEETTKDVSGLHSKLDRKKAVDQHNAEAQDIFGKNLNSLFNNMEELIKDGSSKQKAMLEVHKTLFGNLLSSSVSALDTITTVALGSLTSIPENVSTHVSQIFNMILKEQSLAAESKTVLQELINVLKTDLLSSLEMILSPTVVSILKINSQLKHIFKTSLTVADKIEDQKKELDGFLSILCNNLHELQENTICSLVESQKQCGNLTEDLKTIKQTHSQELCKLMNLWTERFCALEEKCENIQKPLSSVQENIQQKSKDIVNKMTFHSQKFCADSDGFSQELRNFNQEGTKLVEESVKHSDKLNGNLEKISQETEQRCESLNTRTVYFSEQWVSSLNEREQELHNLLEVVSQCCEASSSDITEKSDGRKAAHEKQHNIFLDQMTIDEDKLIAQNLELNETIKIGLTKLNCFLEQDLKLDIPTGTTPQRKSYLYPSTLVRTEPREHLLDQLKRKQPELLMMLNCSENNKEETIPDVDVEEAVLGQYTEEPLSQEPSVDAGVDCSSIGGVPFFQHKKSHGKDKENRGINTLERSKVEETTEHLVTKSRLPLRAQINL

[3] = biological target: T3, Kinesin heavy chain isoform 5A (Homo sapiens, UniProt Q12840); assay: Inhibition of nKHC
T3 sequence (Q12840 whole entry): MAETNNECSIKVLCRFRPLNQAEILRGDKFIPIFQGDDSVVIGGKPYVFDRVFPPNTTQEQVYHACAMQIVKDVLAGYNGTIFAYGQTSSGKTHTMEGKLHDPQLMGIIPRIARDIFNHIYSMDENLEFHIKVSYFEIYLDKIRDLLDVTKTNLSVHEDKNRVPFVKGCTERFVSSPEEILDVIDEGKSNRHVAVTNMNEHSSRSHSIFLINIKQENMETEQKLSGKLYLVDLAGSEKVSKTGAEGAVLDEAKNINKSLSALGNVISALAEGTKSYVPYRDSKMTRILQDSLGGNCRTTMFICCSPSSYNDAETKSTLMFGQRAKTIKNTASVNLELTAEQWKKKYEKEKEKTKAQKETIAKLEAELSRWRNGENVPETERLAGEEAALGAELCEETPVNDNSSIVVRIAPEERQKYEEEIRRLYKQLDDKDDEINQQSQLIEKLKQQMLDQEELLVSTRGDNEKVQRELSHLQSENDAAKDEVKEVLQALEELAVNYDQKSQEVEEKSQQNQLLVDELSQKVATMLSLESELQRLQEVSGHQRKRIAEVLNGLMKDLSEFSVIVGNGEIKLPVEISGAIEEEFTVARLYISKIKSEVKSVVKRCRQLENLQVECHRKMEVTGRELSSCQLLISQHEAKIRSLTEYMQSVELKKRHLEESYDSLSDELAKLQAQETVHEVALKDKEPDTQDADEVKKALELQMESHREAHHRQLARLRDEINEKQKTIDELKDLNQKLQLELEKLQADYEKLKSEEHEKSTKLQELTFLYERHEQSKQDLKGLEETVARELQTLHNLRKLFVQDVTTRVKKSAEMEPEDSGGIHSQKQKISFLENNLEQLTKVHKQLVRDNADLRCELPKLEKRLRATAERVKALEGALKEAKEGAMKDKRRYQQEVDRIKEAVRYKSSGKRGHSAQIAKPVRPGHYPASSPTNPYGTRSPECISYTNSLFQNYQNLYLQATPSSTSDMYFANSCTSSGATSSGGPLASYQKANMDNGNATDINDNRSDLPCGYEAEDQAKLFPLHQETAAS

[4] = biological target: Kinesin-like protein KIF11 (Homo sapiens) (UniProt P52732); assay: Selectivity for human KSP over HSET

SMILES	IC50 [1]	IC50 [2]	IC50 [3]	fold change (FC) [4]
COc1ccc(CNc2nc3cc(C(=O)O)ccc3n2Cc2ccccc2C(F)(F)F)cc1	> 50 µM	> 20 µM	> 50 µM	–
CN(C)C(=O)c1ccc2c(c1)nc(Nc1ccc(S(N)(=O)=O)cc1)n2Cc1ccccc1C(F)(F)F	> 50 µM	16.3 µM	> 50 µM	–
COc1ccc(Cc2nc3cc(C(=O)O)ccc3n2Cc2ccccc2C(F)(F)F)cc1	–	> 20 µM	–	–
COc1ccc(Nc2nc3cc(C(=O)O)ccc3n2Cc2ccccc2C(F)(F)F)cc1	> 50 µM	> 20 µM	> 50 µM	–
NS(=O)(=O)c1ccc(Nc2nc3cc(C(=O)N4CCCC4)ccc3n2Cc2ccccc2C(F)(F)F)cc1	> 50 µM	> 20 µM	> 50 µM	–
NC(=O)c1ccc2nc(Nc3ccc(S(N)(=O)=O)cc3)n(Cc3ccccc3C(F)(F)F)c2c1	–	> 20 µM	–	–
COC(=O)c1ccc2c(c1)nc(Nc1ccc(SC)cc1)n2Cc1ccccc1C(F)(F)F	> 50 µM	33.4 µM	> 50 µM	–
NC(=O)c1ccc2c(c1)nc(Nc1ccc(S(N)(=O)=O)cc1)n2C1(c2ccccc2)CC1	> 50 µM	> 20 µM	> 50 µM	–
COc1ccc(Nc2nc3cc(C(=O)Nc4ccccc4OC)ccc3n2Cc2ccccc2C(F)(F)F)cc1	> 50 µM	6 µM	> 50 µM	–
NC1CCN(c2nc3cc(C(=O)O)ccc3n2Cc2ccccc2C(F)(F)F)C1 (centres undefined)	> 50 µM	> 20 µM	> 50 µM	–
CS(=O)(=O)c1ccc(CNc2nc3cc(C(=O)O)ccc3n2Cc2ccccc2C(F)(F)F)cc1	> 50 µM	> 20 µM	> 50 µM	–
NC(=O)c1cc2nc(Nc3ccc(S(N)(=O)=O)cc3)n(Cc3ccccc3C(F)(F)F)c2cc1F	–	7.9 µM	–	–
Cc1ccc(CNc2nc3cc(C(=O)O)ccc3n2Cc2ccccc2C(F)(F)F)cc1	> 50 µM	> 20 µM	> 50 µM	–
NC(=O)c1cc2c(cc1F)nc(Nc1ccc(S(N)(=O)=O)cc1)n2Cc1ccccc1C(F)(F)F	–	> 20 µM	–	–
NS(=O)(=O)c1ccc(Nc2nc3cc(C(=O)O)ccc3n2Cc2ccccc2C(F)(F)F)cc1	> 50 µM	> 20 µM	> 50 µM	–
NC(=O)c1ccc2c(c1)nc(Nc1ccc(S(N)(=O)=O)cc1)n2Cc1nc2ccccc2s1	> 50 µM	> 20 µM	> 50 µM	–
CC(c1ccccc1C(F)(F)F)n1c(Nc2ccc(S(N)(=O)=O)cc2)nc2cc(C(N)=O)ccc21 (centres undefined)	> 50 µM	> 20 µM	> 50 µM	–
COc1ccccc1Cn1c(Nc2ccc(S(N)(=O)=O)cc2)nc2cc(C(N)=O)ccc21	> 50 µM	20 µM	> 50 µM	–

SMILES	IC50 [1]	IC50 [2]	IC50 [3]	fold change (FC) [4]
NC(=O)c1ccc2c(c1)nc(Nc1ccc(S(N)(=O)=O)cc1)n2Cc1csc2ccc(Cl)cc12	> 50 µM	19 µM	> 50 µM	–
CSc1ccc(Nc2nc3cc(C(=O)O)ccc3n2Cc2ccccc2C(F)(F)F)cc1	> 50 µM	1.4 µM	> 50 µM	–
NS(=O)(=O)c1ccc(CNc2nc3cc(C(=O)O)ccc3n2Cc2ccccc2C(F)(F)F)cc1	> 50 µM	> 20 µM	> 50 µM	–
COc1cccc(Cn2c(Nc3ccc(S(N)(=O)=O)cc3)nc3cc(C(N)=O)ccc32)c1OC	> 50 µM	5 µM	> 50 µM	–
COC(=O)c1ccc2c(c1)nc(Nc1ccc(S(N)(=O)=O)cc1)n2Cc1ccccc1C(F)(F)F	> 50 µM	2.2 µM	> 50 µM	–
COc1ccccc1NC(=O)c1ccc2c(c1)nc(Nc1ccc(S(N)(=O)=O)cc1)n2Cc1ccccc1C(F)(F)F	> 50 µM	2.4 µM	> 50 µM	–
CSc1ccc(Cc2nc3cc(C(=O)O)ccc3n2Cc2ccccc2C(F)(F)F)cc1	–	> 20 µM	–	–
NC(=O)c1ccc2c(c1)nc(Nc1ccc(S(N)(=O)=O)cc1)n2Cc1csc2ccccc12	> 50 µM	2.1 µM	> 50 µM	> 24
CS(=O)(=O)c1ccc(Nc2nc3cc(C(=O)O)ccc3n2Cc2ccccc2C(F)(F)F)cc1	> 50 µM	6.9 µM	> 50 µM	7
NC(=O)c1ccc2c(c1)nc(Nc1ccc(S(N)(=O)=O)cc1)n2Cc1ccccc1C(F)(F)F	> 50 µM	7.4 µM	> 50 µM	5
CNC(=O)c1ccc2c(c1)nc(Nc1ccc(S(N)(=O)=O)cc1)n2Cc1ccccc1C(F)(F)F	> 50 µM	9.2 µM	> 50 µM	–
NC(=O)c1ccc2c(c1)nc(Nc1ccc(S(N)(=O)=O)cc1)n2Cc1ccccn1	> 50 µM	> 20 µM	> 50 µM	–
O=C(O)c1ccc2c(c1)nc(NCCN1CCOCC1)n2Cc1ccccc1C(F)(F)F	> 50 µM	> 20 µM	> 50 µM	–
COc1ccc(Nc2nc3cc(C(=O)O)ccc3n2Cc2ccccc2C(F)(F)F)cc1F	> 50 µM	2.3 µM	> 50 µM	–
COc1ccc(Nc2nc3cc(C(N)=O)ccc3n2Cc2ccccc2C(F)(F)F)cc1F	> 50 µM	1.3 µM	> 50 µM	11
COC(=O)c1ccc2c(c1)nc(Nc1ccc(OC)cc1)n2Cc1ccccc1C(F)(F)F	> 50 µM	13.4 µM	> 50 µM	–
CNC(=O)c1ccc2c(c1)nc(Nc1ccc(OC)cc1)n2Cc1ccccc1C(F)(F)F	> 50 µM	5.2 µM	> 50 µM	–
